{"source": "the supplement of paper PMC10307832", "test_in_all_cases": "relative viability (nuclei count vs DMSO), 5 days (fraction); higher = more cells survive", "key": {"[1]": {"test_system": "NCI-H650", "summary_of_the_method": "(§1)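 The day after seeding in 1536-well plates, lung cancer cell lines were treated by pin tool with a single drug, or with a fixed anchor-drug dose together with five library-drug doses (not always all listed) in √10 steps. After 5 days, a combined fix-and-stain solution (final 0.05% Triton X-100, 1% formaldehyde, 1 ug/ml Hoechst) was added. Nuclei counted on 4× images gave relative viability as treated counts over vehicle counts, reported as the median of duplicate plates.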"}, "[2]": {"test_system": "NCI-H1648", "summary_of_the_method": "as §1"}, "[3]": {"test_system": "NCI-H1651", "summary_of_the_method": "as §1"}, "[4]": {"test_system": "NCI-H1703", "summary_of_the_method": "as §1"}, "[5]": {"test_system": "NCI-H838", "summary_of_the_method": "as §1"}, "[6]": {"test_system": "NCI-H1944", "summary_of_the_method": "as §1"}, "[7]": {"test_system": "RERF-LC-KJ", "summary_of_the_method": "as §1"}, "[8]": {"test_system": "NCI-H1299", "summary_of_the_method": "as §1"}, "[9]": {"test_system": "NCI-H520", "summary_of_the_method": "as §1"}, "[10]": {"test_system": "IA-LM", "summary_of_the_method": "as §1"}, "[11]": {"test_system": "EBC-1", "summary_of_the_method": "as §1"}, "[12]": {"test_system": "Calu-6", "summary_of_the_method": "as §1"}, "[13]": {"test_system": "A549", "summary_of_the_method": "as §1"}}, "data": [{"compound": "COc1nc(C)cnc1NS(=O)(=O)c1cccnc1-c1ccc(-c2nnco2)cc1", "note": "[Zibotentan] + NC(=O)Nc1cc(-c2cccc(F)c2)sc1C(=O)N[C@H]1CCCNC1 [AZD7762] (partner 0.2 µM)", "values": [{"measurement": "relative viability", "setting": "[1]; first compound 0.08 µM", "value": 1.09}, {"measurement": "relative viability", "setting": "[1]; first compound 0.253 µM", "value": 0.892}, {"measurement": "relative viability", "setting": "[1]; first compound 0.8 µM", "value": 0.943}, {"measurement": "relative viability", "setting": "[1]; first compound 2.53 µM", "value": 1.11}, {"measurement": "relative viability", "setting": "[2]; first compound 0.08 µM", "value": 0.637}, {"measurement": "relative viability", "setting": "[2]; first compound 0.253 µM", "value": 0.596}, {"measurement": "relative viability", "setting": "[2]; first compound 0.8 µM", "value": 0.596}, {"measurement": "relative viability", "setting": "[2]; first compound 2.53 µM", "value": 0.63}, {"measurement": "relative viability", "setting": "[3]; first compound 0.08 µM", "value": 0.448}, {"measurement": "relative viability", "setting": "[3]; first compound 0.253 µM", "value": 0.389}, {"measurement": "relative viability", "setting": "[3]; first compound 0.8 µM", "value": 0.446}, {"measurement": "relative viability", "setting": "[3]; first compound 2.53 µM", "value": 0.419}, {"measurement": "relative viability", "setting": "[4]; first compound 0.08 µM", "value": 0.139}, {"measurement": "relative viability", "setting": "[4]; first compound 0.253 µM", "value": 0.114}, {"measurement": "relative viability", "setting": "[4]; first compound 0.8 µM", "value": 0.108}, {"measurement": "relative viability", "setting": "[4]; first compound 2.53 µM", "value": 0.121}, {"measurement": "relative viability", "setting": "[5]; first compound 0.08 µM", "value": 0.91}, {"measurement": "relative viability", "setting": "[5]; first compound 0.253 µM", "value": 0.909}, {"measurement": "relative viability", "setting": "[5]; first compound 0.8 µM", "value": 0.912}, {"measurement": "relative viability", "setting": "[5]; first compound 2.53 µM", "value": 0.956}, {"measurement": "relative viability", "setting": "[6]; first compound 0.08 µM", "value": 0.561}, {"measurement": "relative viability", "setting": "[6]; first compound 0.253 µM", "value": 0.487}, {"measurement": "relative viability", "setting": "[6]; first compound 0.8 µM", "value": 0.249}, {"measurement": "relative viability", "setting": "[6]; first compound 2.53 µM", "value": 0.548}, {"measurement": "relative viability", "setting": "[7]; first compound 0.08 µM", "value": 1.16}, {"measurement": "relative viability", "setting": "[7]; first compound 0.253 µM", "value": 0.938}, {"measurement": "relative viability", "setting": "[7]; first compound 0.8 µM", "value": 0.841}, {"measurement": "relative viability", "setting": "[7]; first compound 2.53 µM", "value": 0.909}]}, {"compound": "COc1nc(C)cnc1NS(=O)(=O)c1cccnc1-c1ccc(-c2nnco2)cc1", "note": "[Zibotentan] + O=C(c1cc(Cc2n[nH]c(=O)c3ccccc23)ccc1F)N1CCN(C(=O)C2CC2)CC1 [Olaparib] (partner 8 µM)", "values": [{"measurement": "relative viability", "setting": "[1]; first compound 0.08 µM", "value": 0.413}, {"measurement": "relative viability", "setting": "[1]; first compound 0.253 µM", "value": 0.395}, {"measurement": "relative viability", "setting": "[1]; first compound 0.8 µM", "value": 0.52}, {"measurement": "relative viability", "setting": "[1]; first compound 2.53 µM", "value": 0.443}, {"measurement": "relative viability", "setting": "[8]; first compound 0.08 µM", "value": 1.01}, {"measurement": "relative viability", "setting": "[8]; first compound 0.253 µM", "value": 0.906}, {"measurement": "relative viability", "setting": "[8]; first compound 0.8 µM", "value": 0.973}, {"measurement": "relative viability", "setting": "[8]; first compound 2.53 µM", "value": 1}, {"measurement": "relative viability", "setting": "[2]; first compound 0.08 µM", "value": 0.853}, {"measurement": "relative viability", "setting": "[2]; first compound 0.253 µM", "value": 0.503}, {"measurement": "relative viability", "setting": "[2]; first compound 0.8 µM", "value": 0.85}, {"measurement": "relative viability", "setting": "[2]; first compound 2.53 µM", "value": 0.954}, {"measurement": "relative viability", "setting": "[9]; first compound 0.08 µM", "value": 0.282}, {"measurement": "relative viability", "setting": "[9]; first compound 0.253 µM", "value": 0.296}, {"measurement": "relative viability", "setting": "[9]; first compound 0.8 µM", "value": 0.252}, {"measurement": "relative viability", "setting": "[9]; first compound 2.53 µM", "value": 0.352}, {"measurement": "relative viability", "setting": "[3]; first compound 0.08 µM", "value": 0.172}, {"measurement": "relative viability", "setting": "[3]; first compound 0.253 µM", "value": 0.191}, {"measurement": "relative viability", "setting": "[3]; first compound 0.8 µM", "value": 0.19}, {"measurement": "relative viability", "setting": "[3]; first compound 2.53 µM", "value": 0.184}, {"measurement": "relative viability", "setting": "[10]; first compound 0.08 µM", "value": 0.966}, {"measurement": "relative viability", "setting": "[10]; first compound 0.253 µM", "value": 0.86}, {"measurement": "relative viability", "setting": "[10]; first compound 0.8 µM", "value": 0.938}, {"measurement": "relative viability", "setting": "[10]; first compound 2.53 µM", "value": 0.824}, {"measurement": "relative viability", "setting": "[4]; first compound 0.08 µM", "value": 0.476}, {"measurement": "relative viability", "setting": "[4]; first compound 0.253 µM", "value": 0.368}, {"measurement": "relative viability", "setting": "[4]; first compound 0.8 µM", "value": 0.435}, {"measurement": "relative viability", "setting": "[4]; first compound 2.53 µM", "value": 0.292}, {"measurement": "relative viability", "setting": "[11]; first compound 0.08 µM", "value": 0.698}, {"measurement": "relative viability", "setting": "[11]; first compound 0.253 µM", "value": 0.713}, {"measurement": "relative viability", "setting": "[11]; first compound 0.8 µM", "value": 0.827}, {"measurement": "relative viability", "setting": "[11]; first compound 2.53 µM", "value": 0.651}, {"measurement": "relative viability", "setting": "[5]; first compound 0.08 µM", "value": 0.756}, {"measurement": "relative viability", "setting": "[5]; first compound 0.253 µM", "value": 0.747}, {"measurement": "relative viability", "setting": "[5]; first compound 0.8 µM", "value": 0.827}, {"measurement": "relative viability", "setting": "[5]; first compound 2.53 µM", "value": 0.849}, {"measurement": "relative viability", "setting": "[12]; first compound 0.08 µM", "value": 0.61}, {"measurement": "relative viability", "setting": "[12]; first compound 0.253 µM", "value": 0.518}, {"measurement": "relative viability", "setting": "[12]; first compound 0.8 µM", "value": 0.621}, {"measurement": "relative viability", "setting": "[12]; first compound 2.53 µM", "value": 0.555}, {"measurement": "relative viability", "setting": "[6]; first compound 0.08 µM", "value": 0.417}, {"measurement": "relative viability", "setting": "[6]; first compound 0.253 µM", "value": 0.369}, {"measurement": "relative viability", "setting": "[6]; first compound 0.8 µM", "value": 0.392}, {"measurement": "relative viability", "setting": "[6]; first compound 2.53 µM", "value": 0.406}, {"measurement": "relative viability", "setting": "[7]; first compound 0.08 µM", "value": 0.832}, {"measurement": "relative viability", "setting": "[7]; first compound 0.253 µM", "value": 0.802}, {"measurement": "relative viability", "setting": "[7]; first compound 0.8 µM", "value": 0.921}, {"measurement": "relative viability", "setting": "[7]; first compound 2.53 µM", "value": 0.894}, {"measurement": "relative viability", "setting": "[13]; first compound 0.08 µM", "value": 0.365}, {"measurement": "relative viability", "setting": "[13]; first compound 0.253 µM", "value": 0.31}, {"measurement": "relative viability", "setting": "[13]; first compound 0.8 µM", "value": 0.333}, {"measurement": "relative viability", "setting": "[13]; first compound 2.53 µM", "value": 0.32}]}]}
